Read-outs that look alike come from different tables or passages of the source.
How the values were obtained:
VMAT2 [1] = biological target: T1, VMAT2 (Rattus norvegicus (Rat), UniProt Q01827); assay: [3H]Dopamine ([3H]DA) uptake assay, vesicular preparation; type: biochemical
[2] = biological target: hERG channel (selectivity at VMAT2 over hERG) (Homo sapiens (Human), UniProt Q12809); assay: [3H]Dofetilide binding assay, HEK-293 cell membrane preparation; conditions: human, pH 7.4
Method: (§1) [^3H]Dofetilide binding assays were conducted using commercially available HEK-293 cell membranes which stably express the hERG channel. Membranes were suspended in assay buffer (50 mM Tris, 10 mM KCl, 1 mM MgCl2, pH 7.4) prior to the experiment. […] Aliquots of the HEK-293 cell membrane suspension which contained 5 μg membrane protein were added to tubes containing assay buffer, 5 nM [^3H]dofetilide and a range of concentrations of analog (10 nM-100 μM). Nonspecific binding was determined in the presence of amitriptyline (1 mM). Samples were incubated for 1 hr. at 24° C., followed by rapid filtration. […] The affinity for the [^3H]dofetilide binding site on the hERG channel expressed in the HEK-293 cellular membrane was determined from the analog concentration response curves.

[3] = biological target: dopamine transporter (DAT) (Rattus norvegicus (Rat), UniProt P23977); assay: [3H]DA uptake assay, synaptosomal preparation; type: biochemical
Method: (§2) [^3H]DA and [^3H]5-HT uptake into striatal synaptosomes was determined to evaluate compound inhibition of the dopamine transporter (DAT) and the serotonin transporter (SERT), respectively.

rats = assay: METH-stimulated locomotor activity in rats; type: in vivo, rat; conditions: s.c.
[4] = biological target: serotonin transporter (SERT) (Rattus norvegicus (Rat), UniProt P31652); assay: [3H]5-HT uptake assay, synaptosomal preparation; type: biochemical
Method: as §2

VMAT2 [5] = biological target: T1, VMAT2; conditions: rat brain synaptic vesicles; read-out: [3H]DTBZ binding (Ki) VMAT2
[6] = Microsomal stability assay, human liver microsomes; conditions: for half-life at 0.08 µM: both, human, pH 7.4, Microsomal stability assays: Half-life
hERG channel = hERG channel (Homo sapiens (Human), UniProt Q12809); assay: [3H]Dofetilide binding assay, HEK-293 cell membrane preparation
Sequence of hERG channel (Q12809 whole entry): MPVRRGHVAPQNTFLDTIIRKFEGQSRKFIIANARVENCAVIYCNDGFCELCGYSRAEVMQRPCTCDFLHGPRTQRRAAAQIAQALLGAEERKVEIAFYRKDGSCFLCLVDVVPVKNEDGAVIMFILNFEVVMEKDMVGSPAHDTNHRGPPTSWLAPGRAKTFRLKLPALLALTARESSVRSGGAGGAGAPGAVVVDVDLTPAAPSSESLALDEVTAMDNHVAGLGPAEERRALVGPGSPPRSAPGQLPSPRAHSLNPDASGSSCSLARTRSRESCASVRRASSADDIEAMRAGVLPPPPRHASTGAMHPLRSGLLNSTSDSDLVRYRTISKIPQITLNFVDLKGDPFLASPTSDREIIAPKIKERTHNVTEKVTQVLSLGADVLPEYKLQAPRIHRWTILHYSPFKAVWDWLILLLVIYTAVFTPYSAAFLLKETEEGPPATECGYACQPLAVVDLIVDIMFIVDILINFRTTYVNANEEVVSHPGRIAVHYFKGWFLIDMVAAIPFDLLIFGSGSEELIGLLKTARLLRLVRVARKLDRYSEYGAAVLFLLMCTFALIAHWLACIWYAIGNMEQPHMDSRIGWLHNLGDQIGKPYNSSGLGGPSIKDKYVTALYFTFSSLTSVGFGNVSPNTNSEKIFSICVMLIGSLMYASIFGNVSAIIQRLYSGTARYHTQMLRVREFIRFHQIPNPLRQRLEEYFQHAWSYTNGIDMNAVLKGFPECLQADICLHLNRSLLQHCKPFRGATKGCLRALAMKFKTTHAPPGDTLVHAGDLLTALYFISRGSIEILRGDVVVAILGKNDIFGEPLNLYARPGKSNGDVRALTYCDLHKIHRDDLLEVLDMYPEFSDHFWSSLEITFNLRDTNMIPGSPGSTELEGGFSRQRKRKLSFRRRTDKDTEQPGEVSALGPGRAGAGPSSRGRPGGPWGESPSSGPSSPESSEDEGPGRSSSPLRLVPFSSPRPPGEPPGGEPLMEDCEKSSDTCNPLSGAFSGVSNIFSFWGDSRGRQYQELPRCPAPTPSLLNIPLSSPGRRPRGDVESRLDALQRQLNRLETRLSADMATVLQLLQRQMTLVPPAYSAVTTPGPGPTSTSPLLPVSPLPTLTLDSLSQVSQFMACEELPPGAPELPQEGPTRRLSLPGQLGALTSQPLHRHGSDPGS
Method: as §1

in vitro [7] = conditions: both, human, microsomes, pH 7.4, Microsomal stability assays: Clearance
in vitro [8] = conditions: female, Sprague-Dawley, rat, microsomes, pH 7.4, Microsomal stability assays: Clearance
Method: (§3) Each plate holds triplicate samples of two controls (0.4 mM) and up to 14 compounds (0.08 mM) in rat and human liver microsomes. Aliquots of each well of the plate (175 μl of each well) were transferred from the master plate into 5 assay plates. For 0-hr time point, pre-cooled (4° C.) internal standard (437.5 μL, 2 μM caffeine in methanol) was added to the first plate before the reaction starts. NADPH regenerating system solution A (6.05 ml, Fisher Scientific, #NC9255727) was combined with NADPH regenerating system solution B (1.21 ml, Fisher Scientific, #NC9016235) in potassium phosphate buffer (15.8 ml, 0.1 M, pH 7.4, 37° C.). The resulting NADPH solution (43.8 μl) was added to each well of all the 96-well assay plates and mixed with pipette briefly making the final protein and compound concentrations respectively: 0.5 mg/ml, 0.08 μM (0.4 μM for controls). Plates were sealed, and all plates except the 0-hr plate were incubated at 37° C., shaken at a speed of 60 rpm. A single assay plate was tested at each time point: 0.5 hr, 1 hr, 2 hr, and 4 hr. At each time point, 437.5 μL of pre-cooled internal standard was added each well of the plate to quench the reaction. […] 120 μl supernatant was transferred to a 96-well plate, centrifuged again and analyzed by UPLC-MS (Waters Inc., Milford, MA). The compounds and internal standard were detected by selected ion recording (SIR).
(§4) The amount of material was measured as a ratio of peak area to the internal standard and graphed. Using the slope from the initial linear portion of this curve, the degradation rate constant is calculated using equation [1].

[9] = Microsomal stability assay, rat liver microsomes; conditions: female, Sprague-Dawley, rat, pH 7.4, Microsomal stability assays: Half-life
Method: as §3, §4

[10] = in vivo; cited from earlier work
rat striatal slices = conditions: cited from earlier work
VMAT2 [11] = biological target: T1, VMAT2; conditions: rat brain vesicles; read-out: inhibition of [3H]DA uptake into rat brain vesicles via VMAT2 (Ki); cited from earlier work
[12] = [3H]DA uptake (Ki) VMAT2, rat striatal synaptic vesicles
[13] = rat striatal synaptic vesicles, read-out: [3H]DA uptake (Ki) VMAT2
[14] = [3H]DA uptake, rat, read-out: VMAT2 (rat) Inhibition: Mean Ki ± Standard Deviation
[15] = [3H]dofetilide, HEK-293 cell membranes, read-out: hERG Binding: Mean Ki ± Standard Deviation

Sequence of hERG channel (selectivity at VMAT2 over hERG) (Q12809 whole entry): as above

Compound: COc1ccc(CCCN[C@H](C)Cc2ccccc2)cc1.Cl [Compound 9]
- Ki (VMAT2 [1]; Ki value at VMAT2, text value): 8.71 ± 3.65 nM
- Ki (VMAT2 [1]; [12]): 8.7 ± 6.5 nM
- selectivity ratio at 1 hr [2]: > 30
- selectivity at VMAT2 over DAT [3]: > 30 fold
- METH-stimulated locomotor activity (rats; 3 mg/kg): significant reduction
- selectivity at VMAT2 over SERT [4]: > 30 fold

Compound: COc1ccc(CCCN[C@@H](C)Cc2ccccc2)cc1.Cl [Compound 10]
- Ki (VMAT2 [1]; Ki value at VMAT2, text value): 25.5 ± 3.57 nM
- Ki (VMAT2 [1]; [12]): 26 ± 3.6 nM
- selectivity ratio at 1 hr [2]: > 30
- selectivity at VMAT2 over DAT [3]: > 30 fold
- METH-stimulated locomotor activity (rats; 17 mg/kg): significant reduction
- selectivity at VMAT2 over SERT [4]: > 30 fold

Compound: CC(Cc1ccc(N)cc1)NCCCc1ccccc1 (centres unmarked) [Compound 45]
- Ki (VMAT2 [1]; [13]): 36 ± 3 nM
- Ki (VMAT2 [5]): 2800 ± 700 nM

Compound: COc1ccc(CC(C)NCCCc2ccccc2)cc1OC (centres unmarked) [Compound 46]
- Ki (VMAT2 [1]; [13]): 140 ± 13 nM
- Ki (VMAT2 [5]): 3800 ± 100 nM

Compound: COc1ccc(CC(C)NCCCCc2ccccc2)cc1OC (centres unmarked) [Compound 47]
- Ki (VMAT2 [1]; [13]): 29 ± 11 nM
- Ki (VMAT2 [5]): 1100 ± 100 nM

Compound: CC(CCc1ccccc1)NCCc1ccccc1 (centres unmarked) [Compound 48]
- Ki (VMAT2 [1]; [13]): 50 ± 4 nM
- Ki (VMAT2 [5]): 1600 ± 330 nM

Compound: CC(CCc1ccccc1)N(C)CCc1ccccc1 (centres unmarked) [Compound 49]
- Ki (VMAT2 [1]; [13]): 84 ± 4 nM
- Ki (VMAT2 [5]): 29800 ± 11200 nM

Compound: CC(CCc1ccccc1)NCCCc1ccccc1 (centres unmarked) [Compound 50]
- Ki (VMAT2 [1]; [13]): 50 ± 12 nM
- Ki (VMAT2 [5]): 4810 ± 1130 nM

Compound: CC(CCc1ccccc1)N(C)CCCc1ccccc1 (centres unmarked) [Compound 51]
- Ki (VMAT2 [1]; [13]): 360 ± 34 nM
- Ki (VMAT2 [5]): 17200 ± 6330 nM

Compound: COc1ccc(CCCNC(C)CCc2ccccc2)cc1 (centres unmarked) [Compound 52]
- Ki (VMAT2 [1]; [13]): 26 ± 2 nM
- Ki (VMAT2 [5]): 3200 ± 100 nM

Compound: COc1ccc(CCCNC(C)CCc2ccc(OC)cc2)cc1 (centres unmarked) [Compound 53]
- Ki (VMAT2 [1]; [13]): 24 ± 6 nM
- Ki (VMAT2 [5]): 1500 ± 700 nM

Compound: FCC(Cc1ccc(-c2cncnc2)cc1)NCCCc1ccc(F)cc1 (centres unmarked) [Compound 68]
- Ki (VMAT2 [1]; [14]): 5.53 ± 0.567 nM
- half-life at 0.08 µM ([6]; pooled liver microsomes): < 6 min
- Ki (hERG channel; [15]): 633 ± 46.3 nM
- CLint scaled at 0.08 µM (in vitro [7]): > 400 mL/min/kg

Compound: FCC(Cc1ccc(-c2cncnc2)cc1)NCCCc1ccc(F)cc1 (centres unmarked) [Compound 69]
- CLint scaled at 0.08 µM (in vitro [8]): 76.8 mL/min/kg
- half-life at 0.08 µM ([9]; liver microsomes): 36 min

Compound: O=CNc1ccc(CC(CF)NCCCc2ccc(F)cc2)cc1 (centres unmarked) [Compound 72]
- Ki (VMAT2 [1]; [14]): 16.4 ± 2.89 nM
- half-life at 0.08 µM ([6]; pooled liver microsomes): 48 min
- Ki (hERG channel; [15]): 516 ± 63.6 nM
- CLint scaled at 0.08 µM (in vitro [7]): 26.5 mL/min/kg

Compound: O=CNc1ccc(CC(CF)NCCCc2ccc(F)cc2)cc1 (centres unmarked) [Compound 73]
- CLint scaled at 0.08 µM (in vitro [8]): 43.7 mL/min/kg
- half-life at 0.08 µM ([9]; liver microsomes): 66 min

Compound: CC(Cc1ccc(NC=O)cc1)N(C=O)CCCc1ccccc1 (centres unmarked) [Compound 75]
- Ki (VMAT2 [1]; [14]): 22700 ± 432 nM
- half-life at 0.08 µM ([6]; pooled liver microsomes): 12 min
- CLint scaled at 0.08 µM (in vitro [7]): 121 mL/min/kg

Compound: CC(Cc1ccc(NC=O)cc1)N(C=O)CCCc1ccccc1 (centres unmarked) [Compound 76]
- CLint scaled at 0.08 µM (in vitro [8]): 56 mL/min/kg
- half-life at 0.08 µM ([9]; liver microsomes): 48 min

Compound: Nc1ccc(CC(CF)NCCCc2ccc(F)cc2)cc1 (centres unmarked) [Compound 79, [N-3-(4-fluorophenyl)-propan-1-yl]-3-(4-aminophenyl)-1-fluoro-2-propylamine]
- Ki (VMAT2 [1]; [14]): 19.8 ± 9.29 nM
- Ki (hERG channel; [15]): 3440 ± 983 nM
- CLint scaled at 0.08 µM (in vitro [8]): 21.1 mL/min/kg
- half-life at 0.08 µM ([9]; liver microsomes): 132 min

Compound: Nc1ccc(CC(CF)NCCCc2ccc(F)cc2)cc1 (centres unmarked) [Compound 80, [N-3-(4-fluorophenyl)-propan-1-yl]-3-(4-aminophenyl)-1-fluoro-2-propylamine]
- half-life at 0.08 µM ([6]; pooled liver microsomes): 42 min
- CLint scaled at 0.08 µM (in vitro [7]): 29.5 mL/min/kg

Compound: Fc1ccc(CCCNC(Cc2ccc(F)cc2)C(F)F)cc1 (centres unmarked) [Compound 81]
- Ki (VMAT2 [1]; [14]): 386 ± 194 nM
- CLint scaled at 0.08 µM (in vitro [8]): 83.2 mL/min/kg
- half-life at 0.08 µM ([9]; liver microsomes): 36 min

Compound: Fc1ccc(CCCNC(Cc2ccc(F)cc2)C(F)F)cc1 (centres unmarked) [Compound 82]
- half-life at 0.08 µM ([6]; pooled liver microsomes): 48 min
- CLint scaled at 0.08 µM (in vitro [7]): 26.3 mL/min/kg

Compound: FCC(Cc1ccc(-c2cccnc2)cc1)NCCCc1ccc(F)cc1 (centres unmarked) [Compound 83]
- Ki (VMAT2 [1]; [14]): 27.7 ± 13.9 nM
- Ki (hERG channel; [15]): 6750 ± 3620 nM
- CLint scaled at 0.08 µM (in vitro [8]): 113 mL/min/kg
- half-life at 0.08 µM ([9]; liver microsomes): 24 min

Compound: FCC(Cc1ccc(-c2cccnc2)cc1)NCCCc1ccc(F)cc1 (centres unmarked) [Compound 84]
- Microsomal stability assays: Half-life [6]: 6 min
- CLint scaled at 0.08 µM (in vitro [7]): 173 mL/min/kg

Compound: O=[N+]([O-])c1ccc(CCCNC(CF)Cc2ccc(F)cc2)cc1 (centres unmarked) [Compound 123]
- half-life at 0.08 µM ([6]; pooled human liver microsomes): 72 min
- Ki (hERG channel): 223 ± 199 nM
- CLint scaled at 0.08 µM (in vitro [7]): 18.1 mL/min/kg

Compound: O=[N+]([O-])c1ccc(CCCNC(CF)Cc2ccc(F)cc2)cc1 (centres unmarked) [Compound 124]
- CLint scaled at 0.08 µM (in vitro [8]): 116 mL/min/kg
- half-life at 0.08 µM ([9]; rat liver microsomes): 24 min

Compound: OCC(Cc1ccc(F)cc1)NCCCc1ccncc1 (centres unmarked) [Compound 129]
- half-life at 0.08 µM ([6]; pooled liver microsomes): > 240 min
- CLint scaled at 0.08 µM (in vitro [7]): < 5.2 mL/min/kg

Compound: OCC(Cc1ccc(F)cc1)NCCCn1cccn1 (centres unmarked) [Compound 130]
- Ki (VMAT2 [1]; [14]): 634 ± 195 nM
- half-life at 0.08 µM ([6]; pooled liver microsomes): 36 min
- CLint scaled at 0.08 µM (in vitro [7]): 37.3 mL/min/kg

Compound: OCC(Cc1ccc(F)cc1)NCCCn1cccn1 (centres unmarked) [Compound 131]
- CLint scaled at 0.08 µM (in vitro [8]): 139 mL/min/kg
- half-life at 0.08 µM ([9]; liver microsomes): 18 min

Compound: FCC(Cc1ccc(F)cc1)NCCCc1ccncc1 (centres unmarked) [Compound 142]
- Ki (VMAT2 [1]; [14]): 117 ± 18.7 nM
- CLint scaled at 0.08 µM (in vitro [8]): 38.3 mL/min/kg
- half-life at 0.08 µM ([9]; liver microsomes): 30 min

Compound: FCC(Cc1ccc(F)cc1)NCCCc1ccncc1 (centres unmarked) [Compound 143]
- half-life at 0.08 µM ([6]; pooled liver microsomes): 30 min
- CLint scaled at 0.08 µM (in vitro [7]): 98.1 mL/min/kg

Compound: FCC(Cc1ccc(F)cc1)NCCCc1ccnc2ccccc12 (centres unmarked) [Compound 148]
- Ki (VMAT2 [1]; [14]): 70.3 ± 13 nM
- Ki (hERG channel; [15]): 4700 ± 373 nM
- CLint scaled at 0.08 µM (in vitro [8]): > 400 mL/min/kg
- half-life at 0.08 µM ([9]; liver microsomes): < 6 min

Compound: FCC(Cc1ccc(F)cc1)NCCCc1ccnc2ccccc12 (centres unmarked) [Compound 149]
- Microsomal stability assays: Half-life [6]: 6 min
- CLint scaled at 0.08 µM (in vitro [7]): 162 mL/min/kg

Compound: OCC(Cc1ccc(F)cc1)NCCCc1ccc(Br)cc1 (centres unmarked) [Compound 154]
- Ki (VMAT2 [1]; [14]): 69.1 ± 13.6 nM
- half-life at 0.08 µM ([6]; pooled liver microsomes): > 240 min
- CLint scaled at 0.08 µM (in vitro [7]): < 5.2 mL/min/kg

Compound: OCC(Cc1ccc(F)cc1)NCCCc1ccc(Br)cc1 (centres unmarked) [Compound 155]
- CLint scaled at 0.08 µM (in vitro [8]): > 450 mL/min/kg
- half-life at 0.08 µM ([9]; liver microsomes): < 6 min

Compound: CN1[C@@H](CCc2ccccc2)CCC[C@H]1CCc1ccccc1 [Lobelane]
- METH self-administration [10]: decreases
- METH-evoked DA overflow (rat striatal slices): decreases

Compound: c1ccc(CC[C@H]2CCC[C@@H](CCc3ccccc3)N2)cc1 [Nor-Lobelane]
- Ki (VMAT2 [11]): 44 nM

— patent US11999676B2, “Vesicular monoamine transporter-2 ligands and their use in the treatment of psychostimulant abuse” (priority 2016, dated 2024)
